ChEMBL document CHEMBL1201862, “PubChem BioAssay data set” (2004)
The source made the active and inactive calls. No stated cut-off is given here; in the data, actives have a measured IC50 and inactives only a lower limit.

Molecular target: Envelope glycoprotein gp160 (Human immunodeficiency virus 1, UniProt Q6QLK5)
Test: cell-free HIV fusion peptide-binding blockers – biochemical, uHTS, fluorescence dequenching, […] (AID 1986)

Envelope glycoprotein gp160, sequence (Q6QLK5 whole entry, the tested form may be a part): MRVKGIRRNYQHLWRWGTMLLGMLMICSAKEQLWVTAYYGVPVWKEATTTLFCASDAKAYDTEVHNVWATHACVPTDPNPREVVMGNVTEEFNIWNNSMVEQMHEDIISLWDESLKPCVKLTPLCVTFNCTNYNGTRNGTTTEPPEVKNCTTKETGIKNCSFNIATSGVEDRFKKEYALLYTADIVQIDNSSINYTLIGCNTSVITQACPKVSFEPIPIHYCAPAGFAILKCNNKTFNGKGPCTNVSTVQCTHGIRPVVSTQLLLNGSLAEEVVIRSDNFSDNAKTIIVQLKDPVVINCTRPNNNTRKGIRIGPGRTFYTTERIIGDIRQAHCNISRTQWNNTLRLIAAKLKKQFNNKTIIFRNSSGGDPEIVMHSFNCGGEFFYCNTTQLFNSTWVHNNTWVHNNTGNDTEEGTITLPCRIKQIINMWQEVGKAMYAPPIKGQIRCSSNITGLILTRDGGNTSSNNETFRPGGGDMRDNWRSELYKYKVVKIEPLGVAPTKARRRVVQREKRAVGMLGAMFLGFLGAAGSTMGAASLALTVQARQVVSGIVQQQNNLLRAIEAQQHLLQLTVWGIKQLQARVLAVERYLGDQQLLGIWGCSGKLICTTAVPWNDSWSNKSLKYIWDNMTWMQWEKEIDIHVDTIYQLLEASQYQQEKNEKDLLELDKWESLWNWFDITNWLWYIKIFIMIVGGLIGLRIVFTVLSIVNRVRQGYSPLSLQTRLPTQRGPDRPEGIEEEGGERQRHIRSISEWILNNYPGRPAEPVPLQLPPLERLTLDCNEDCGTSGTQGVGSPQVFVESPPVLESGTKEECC

Question: With CCOC(=O)c1sc2nc3c(SCCC(=O)O)cc(C(=O)c4cc(OC)ccc4O)cn3c(=O)c2c1C as the compound, how does the IC50 read?
Answer: 16 µM (active)
